Activity calls are given as the source filed them.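 Rule for the calls: active = compounds giving half or more protection of infected cells from virus-caused growth loss, again on retest; inactive = the rest.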
Test system: CEM cells HIV-1 protection, formazan growth assay
Experiment: NCI AIDS Antiviral Assay
Conditions: for IC50: measured here: growth of uninfected CEM cells
Outline: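 Human CEM cells, uninfected and HIV-1-infected, received five drug concentrations, and growth was read by soluble formazan assay. Compounds giving at least 50% protection were retested; reproducible 100% protection defined confirmed active.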

| SMILES | EC50 [µM] | IC50 [µM] | outcome |
| --- | --- | --- | --- |
| COc1ccc2c(c1)C=C(C(C)(C)C)NS2(=O)=O | > 97.7 | > 97.7 |  |
| O=c1c2nc3ccccc3c(=O)n2ncn1-c1ccccc1Cl | > 200 | > 200 |  |
| NC(=O)NCCSC1CCCCC1O (configuration not stated) | > 200 | > 200 |  |
| Cc1nc2cc(C(F)(F)F)ccc2[nH]c1=O | > 200 | > 200 |  |
| CC1(c2cccc3c2C2(O)C=CC4(CCC32)OCCO4)OCCO1 (configuration not stated) | 123 | 174 |  |
| O=C1c2ccccc2C(=O)C1(Br)c1ccccc1 | > 200 | > 200 |  |
| O=[N+]([O-])c1ccc(N/N=C2/CC3=C2CCCCCCCCCC3)c([N+](=O)[O-])c1 | > 100 | > 100 |  |
| Cc1c(Cc2ccccc2)n(C(C)OCCN(OC(=O)Oc2ccccc2)C(=O)Oc2ccccc2)c(=O)[nH]c1=O (configuration not stated) | > 200 | 53.7 |  |
| O=c1oc2ccccc2c(O)c1C(c1ccc2c(c1)OCO2)c1c(O)c2ccccc2oc1=O | > 200 | 75.9 |  |
| C=CCC12CC(=O)CCC1c1ccc(OC)cc1C2=O (configuration not stated) | > 251 | 141 |  |
| CCOC(=O)/C(C#N)=C\c1ccc([N+](=O)[O-])o1 | > 1050 | > 1050 |  |
| C1Cc2nnnn2C1 | > 2290 | > 2290 |  |
| CSCCC(NCc1c(O)ccc2c(-c3ccccc3)cc(=O)oc12)C(=O)O (configuration not stated) | > 200 | > 200 |  |
| C=CCOC1=C(OCC=C)C(C2COC(C)(C)O2)OC1=O (configuration not stated) | > 200 | 70.8 |  |
| Brc1ccccc1C1SCc2nc3ccccc3n21 (configuration not stated) |  |  | inactive |
| NC(N)=NS(=O)(=O)c1ccc(NNc2c3ccccc3nc3c(C(=O)Nc4ccc(S(=O)(=O)N=C(N)N)cc4)cccc23)cc1 | > 200 | 33.1 |  |
| CC(C)CCC[C@@H](C)C1CCC2[C@@H]3CCC4CC(CCC=C(c5cc(Cl)c(OC(=O)c6ccccc6)c(C(=O)O)c5)c5cc(Cl)c(OC(=O)c6ccccc6)c(C(=O)O)c5)CC[C@]4(C)C3CC[C@@]21C (some centres not stated) | > 200 | 141 |  |
| O=C(CCC(=O)Nc1ccc(Cl)cc1)CC(=O)c1ccc(F)cc1 |  |  | inactive |
| O=C(Nc1ccccc1)OCCN=c1c2ccccc2ccc2ccccc12 | 17 | 24.5 |  |
| O=C1Cc2c([nH]c3c(Cl)cccc23)-c2ccccc2N1 | > 200 | 11.5 |  |
| NNc1ccc2cc(S(=O)(=O)O)cc(S(=O)(=O)O)c2c1 | > 741 | 331 |  |
| O=C1c2ccccc2N2Oc3ccccc3C12c1ccccc1 (configuration not stated) | > 45.7 | > 45.7 |  |
| CC(C)C(OC(=O)c1cc(NC(=S)c2cccn2C)ccc1Cl)C(C)C | 0.234 | 18.2 |  |

| SMILES | EC50 [µM] | IC50 [µM] | outcome |
| --- | --- | --- | --- |
| COc1ccc(CC2COC(=O)[C@@H]2Cc2cccc(O)c2)cc1OC (some centres not stated) | > 200 | 155 |  |
| CNC1C(OC2C(OC3C(O)C(O)C(N=C(N)N)C(O)C3N=C(N)N)OC(C)C2(O)CO)OC(CO)C(O)C1O (configuration not stated) |  |  | inactive |
| CN(C)c1ccc(-c2nc3c(=O)n(C)c(=O)n(C)c3nc2-c2ccc(N(C)C)cc2)cc1 | > 200 | 126 |  |
| Cc1ccc2cc(N)c3ccc(C)nc3c2n1 | > 2 | 0.309 |  |
| Nc1ncnc2c1ncn2C1C[C@H](O)[C@]2(CO)C[C@H]12 (some centres not stated) | > 50.1 | > 50.1 |  |
| O=C(C=C1SCCS1)/C=C\c1ccc(Cl)cc1 | > 35.5 | > 35.5 |  |
| CCOc1ccc(/C=C/C(=O)c2ccccc2)cc1 | > 200 | 34.7 |  |
| COc1cc(COC(=O)N2CCCCC2C(=O)O)c([N+](=O)[O-])cc1OC (configuration not stated) | > 676 | 457 |  |
| CCOC(=O)c1cnc2c(cnn2CC)c1NN=C(C)C | > 200 | 117 |  |
| c1ccc2sc(SSSc3nc4ccccc4s3)nc2c1 | 14.1 | 34.7 |  |
| CCN(CC)CCOc1ccc(C(O)(Cc2ccc(OC)cc2)c2ccccc2)cc1 (configuration not stated) |  |  | inactive |
| N#CNC(N)=NCc1ccccc1 | 155 | 204 |  |
| C/C=C/C=C\C(=O)C1c2cccc(O)c2C(=O)c2c(O)cc(C)cc21 (configuration not stated) | > 21.4 | 3.89 |  |
| CCOC(=O)CSc1c([N+](=O)[O-])ncn1C | > 1020 | 170 |  |
| CC(C)(C)[Si](C)(C)OCC1OC(n2ccc(=O)[nH]c2=O)C(O[Si](C)(C)C(C)(C)C)[C@@]12N[C@H](C(N)=O)CS2 (some centres not stated) | > 200 | 8.91 |  |
| CSC(Cc1ccc2c(c1)Sc1ccccc1O2)=[N+]1CCOCC1 | > 200 | 44.7 |  |
| O=NN(CCCl)C(=O)/N=N/C(=O)N(CCCl)N=O | > 200 | 15.1 |  |
| N/C(=N\N=C\C1CC2C=CC1C2)NO (configuration not stated) |  |  | inactive |
| Clc1ccc(/C=N\N2CCCCCC2)c(Cl)c1 |  |  | inactive |
| [O-][n+]1onc2ncccc21 | > 138 | 19.5 |  |
| COC(=O)C(Cc1cccc(OC)c1)NC(=O)OC(C)(C)C (configuration not stated) |  |  | inactive |
| CCc1cccc(C(C)C)c1NC(=O)C(=O)CC(=O)c1sc(Nc2c(CC)cccc2C(C)(C)C)nc1C | > 200 | 60.3 |  |
| O=C(NCO)NCOCn1c(=O)n(CO)c(=O)n(CO)c1=O | > 407 | 70.8 |  |

| SMILES | EC50 [µM] | IC50 [µM] | outcome |
| --- | --- | --- | --- |
| CCCCCCCCCCCCNP(=S)(NCCCCCCCCCCCC)NCCCCCCCCCCCC | > 100 | > 100 |  |
| N#CC1C(=O)NC(=O)C(C#N)C12CCCc1sccc12 (configuration not stated) | > 871 | 832 |  |
| CC(=O)Nc1cc(Cl)cc(Cl)c1O | > 200 | 53.7 |  |
| CC(C)(C)N=c1n(C(C)(C)C)oc(=O)n1C(C)(C)C | > 151 | 135 |  |
| O=C1CCCC(=O)N1CCc1c[nH]c2ccccc12 |  |  | inactive |
| COc1ccc2nc(/N=C/N(C)C)sc2c1 | > 200 | > 200 |  |
| CC1(C)OC(=O)C(=Cc2ccc3c(c2)OCO3)C(=O)O1 | > 129 | 110 |  |
| CC(C)NC1CCCCC2c3cc(F)ccc3[C@]12O (some centres not stated) | 60.3 | > 200 |  |
| O=c1c2cccc3cccc(c4n1CCN=4)c32 | > 200 | 20.9 |  |
| CCOC(=O)c1cc(C2(OC)CCN(Cc3ccccc3)C2=O)c(-c2cc(C)no2)[nH]1 (configuration not stated) | > 200 | 148 |  |
| N#CC1(C#N)C(c2ccccc2)C=CC12OCCCO2 (configuration not stated) |  |  | inactive |
| COc1ccc(/C=C2/CCCC/C2=N/O)cc1 | > 295 | 182 |  |
| COc1ccc2nc3ccc(OC)cc3c(S(=O)Cc3ccccc3)c2c1 (configuration not stated) | > 200 | 1.23 |  |
| COC(=O)[C@@H]1C2OC(C)(C)OC2CN1C(=O)OCc1ccccc1 (some centres not stated) |  |  | inactive |
| Nc1cc(Cl)ccc1N1C(=O)C=CC1=O |  |  | inactive |
| COc1ccccc1CNCCCCCCNCCSSCCNCCCCCCNCc1ccccc1OC | > 200 | 57.5 |  |
| Nc1ncnc2c1ncn2C1CC(OC2CCCCO2)C(CO)O1 (configuration not stated) | > 200 | > 200 |  |
| Nc1ccc(C(=O)NN2C(=O)C(Cl)C2c2ccc([N+](=O)[O-])cc2)cc1 (configuration not stated) | > 200 | 4.07 |  |
| COC(=O)CCC(=O)Nc1cc(C)ccc1C | > 1070 | > 1070 |  |
| C=CCN(c1cc(OC)c(NC(C)=O)cc1[N+](=O)[O-])S(C)(=O)=O | > 200 | > 200 |  |
| O=C1c2cccn2-c2ccccc2SC1c1ccccc1 (configuration not stated) | > 200 | 20.4 |  |
| CCOC(=O)/C(=C\n1c(=O)sc2ccccc21)C(=O)c1ccccc1 | > 200 | 42.7 |  |
| CC(C)C(=O)N1Cc2cc(Cl)cc(Cl)c2OC(=O)c2ccccc21 | > 29.5 | 3.02 |  |

| SMILES | EC50 [µM] | IC50 [µM] | outcome |
| --- | --- | --- | --- |
| Cn1c(=O)[nH]c2c(c1=O)Cc1ccccc1S2(=O)=O | > 389 | 148 |  |
| CC1(C)OC(=O)C(=Cc2cccc(Cl)c2)C(=O)O1 | > 490 | > 200 |  |
| CC(N)(CC(O)(C(F)(F)Cl)C(F)(F)Cl)C(=O)O (configuration not stated) | > 200 | > 200 |  |
| COc1ccc2ccnc(Cc3ccc(OCc4ccccc4)c(OC)c3)c2c1 |  |  | inactive |
| COC(=O)C(Cc1c[nH]c2ccccc12)NC(=O)C(Cc1c[nH]c2ccccc12)NC(=O)OCc1ccccc1 (configuration not stated) |  |  | inactive |
| CCOC(=O)C(C(C)=O)C(CC(=O)OC)NC(=O)OCc1ccccc1 (configuration not stated) | > 257 | > 257 |  |
| CC[C@](C)(O)C(=O)O[C@H]1C(=O)O[C@@H]2C[C@H]3C(C)=CC(=O)[C@@H](O)[C@]3(C)[C@H]3[C@@]4(O)OC[C@]32[C@@H]1[C@@H](C)[C@H]4O |  |  | inactive |
| N#CC(C#N)=CN1CCNC1=S | > 200 | > 200 |  |
| CN=C1N[N+]2=CCSCC2(C)S1 (configuration not stated) |  |  | inactive |
| CCCCNC(C)(C)C(SSSC(c1ccco1)C(C)(C)NCCCC)c1ccco1 (configuration not stated) | > 200 | 30.9 |  |
| N#CCc1c(C2(c3ccncc3)OCCO2)[nH]c2ccccc12 | > 117 | 110 |  |
| Cc1cn(C2OCC(CO)C2F)c(=O)[nH]c1=O (configuration not stated) | > 200 | > 200 |  |
| CCOC(=O)/C(=C\c1ccc(Br)cc1)P(=O)(OCC)OCC | > 331 | 6.76 |  |
| CCC(C)[C@H](NC(=O)C1CCCN1C[C@H](O)[C@H](Cc1ccccc1)NC(=O)[C@@H](CC(N)=O)NC(=O)OCc1ccccc1)C(=O)N[C@H](Cc1ccccc1)C(=O)NCCCC[C@@H]1NC(=O)[C@H](CC(C)C)N(C)C(=O)[C@H](C(C)C)NC(=O)[C@H](CC(C)C)N(C)C(=O)[C@@H](CO)N(C)C(=O)[C@H](CC)NC(=O)[C@H]([C@H](O)C(C)C)N(C)C(=O)[C@H](C(C)C)N(C)C(=O)[C@H](CC(C)C)N(C)C(=O)[C@H](CC(C)C)N(C)C(=O)[C@@H](C)NC1=O (some centres not stated) | 0.501 | 67.6 |  |
| CN(C)CCNC(=O)c1cccc2c(Nc3ccc(S(N)(=O)=O)cc3)c3ccccc3nc12 |  |  | inactive |
| COC(=O)c1ccc2cc1Nc1c(C#N)cnc(=S)n1-2 | > 603 | 363 |  |
| CN(C)C(=O)c1nc(CNC(=O)CN)n(-c2ccc(Cl)cc2C(=O)c2ccccc2)n1 | > 200 | > 200 |  |
| CCCCCC=C(c1cc(Br)c(OC)c(C(=O)OC)c1)c1cc(Br)c(OC)c(C(=O)OC)c1 | 26.9 | 87.1 |  |
| CCN(CC)C(=O)Cn1c2c(c3ccccc31)CCCC2 | > 200 | 138 |  |
| CCOC(=O)c1c(N)sc2c1C(C)(C(=O)OCC)CC2 (configuration not stated) | > 200 | 141 |  |
